Measurements reported in US9204653B2, “5-fluoro pyrimidine derivatives” (DOW AGROSCIENCES LLC, priority 2008, dated 2015).
Where two headings read alike, the source gives them in different places.

Tested on: Mycosphaerella graminicola; Anamorph: Septoria tritici; Bayer Code SEPTTR
Assay: Leaf blotch of wheat, foliar fungicide treatment, one day protectant (1DP) or three day curative (3DC)
Format: in vivo, Septoria tritici on wheat plants (variety Yuma)
Settings: Zymoseptoria tritici
[1] = 24 h, one day protectant (1DP), 25 ppm, rating of percent disease control, read-out: SETTTR 1DP 25 ppm
[2] = 24 h, one day protectant (1DP), rating of percent disease control, read-out: SEPTTR 1DP 100 ppm
[3] = 72 h, three day curative (3DC), 25 ppm, rating of percent disease control, read-out: SEPTTR 3DC 25 ppm
[4] = 72 h, three day curative (3DC), rating of percent disease control, read-out: SEPTTR 3DC 100 ppm
[5] = 24 h, one day protectant (1DP), 25 ppm (first 1DP column), percent control rating, read-out: SETTTR 1DP 25 ppm
[6] = 24 h, one day protectant (1DP), 25 ppm as printed (second 1DP column), percent control rating, read-out: SETTTR 1DP 25 ppm
[7] = 72 h, three day curative (3DC), 25 ppm, percent control rating, read-out: SEPTTR 3DC 25 ppm
[8] = 72 h, three day curative (3DC), percent control rating, read-out: SEPTTR 3DC 100 ppm
[9] = 24 h, one day protectant, 25 ppm, rating of percent disease control, read-out: SETTTR 1DP 25 ppm
[10] = 24 h, one day protectant, rating of percent disease control, read-out: SEPTTR 1DP 100 ppm
[11] = 72 h, three day curative, 25 ppm, rating of percent disease control, read-out: SEPTTR 3DC 25 ppm
[12] = 72 h, three day curative, rating of percent disease control, read-out: SEPTTR 3DC 100 ppm
[13] = 24 h, one day protectant (1DP), 25 ppm, percent disease control rating, read-out: SETTTR 1DP 25 ppm
[14] = 24 h, one day protectant (1DP), percent disease control rating, read-out: SEPTTR 1DP 100 ppm
[15] = 72 h, three day curative (3DC), 25 ppm, percent disease control rating, read-out: SEPTTR 3DC 25 ppm
[16] = 72 h, three day curative (3DC), percent disease control rating, read-out: SEPTTR 3DC 100 ppm

| SMILES | pest or weed control at 25 ppm [1] [%] | pest or weed control at 100 ppm [2] [%] | pest or weed control at 25 ppm [3] [%] | pest or weed control at 100 ppm [4] [%] | pest or weed control at 25 ppm [5] [%] | pest or weed control at 25 ppm [6] [%] | pest or weed control at 25 ppm [7] [%] | pest or weed control at 100 ppm [8] [%] | further results |
| --- | --- | --- | --- | --- | --- | --- | --- | --- | --- |
| Cn1ccc(COc2ncc(F)c(NCOCc3ccccc3)n2)n1 [Compound 412] | 0 to 25 | 76 to 100 | 0 to 25 | 51 to 75 |  |  |  |  |  |
| O=C(Nc1ccccc1)Nc1nc(OCc2cccc(F)c2)ncc1F [Compound 332] | 76 to 100 | 76 to 100 | 51 to 75 | 26 to 50 |  |  |  |  |  |
| CC(Oc1ncc(F)c(/N=C2\CCCCN2C)n1)c1ccc(F)cc1 (stereo not shown) [Compound 424] | 51 to 75 | 76 to 100 | 51 to 75 | 76 to 100 |  |  |  |  |  |
| COc1ncc(F)c(/N=N/c2ccccc2Cl)n1 [Compound 1110] |  |  |  |  | 0 to 25 | 0 to 25 | 0 to 25 | 0 to 25 |  |
| Fc1cnc(OCc2ccccc2)nc1NNc1ccc(Br)cc1 [Compound 1035] |  |  |  |  | 0 to 25 | 0 to 25 | 0 to 25 | 0 to 25 |  |
| Fc1cnc(OCc2ccccc2)nc1/N=N/c1ccccc1 [Compound 991] |  |  |  |  | 0 to 25 | 0 to 25 | 0 to 25 | 0 to 25 |  |
| CC(C)/C(=N\c1nc(OCc2ccc(F)cc2)ncc1F)N(C)C [Compound 744] | 76 to 100 | 76 to 100 | 76 to 100 | 76 to 100 |  |  |  |  |  |
| C=CCCOc1ncc(F)c(N)n1 [Compound 653] |  |  |  |  |  |  |  |  | pest or weed control at 25 ppm [9]: 0 to 25%; pest or weed control at 100 ppm [10]: 0 to 25%; pest or weed control at 25 ppm [11]: 26 to 50%; pest or weed control at 100 ppm [12]: 76 to 100% |
| COc1cccc(COc2ncc(F)c(N3CCOCC3)n2)c1 [Compound 586] |  |  |  |  |  |  |  |  | pest or weed control at 25 ppm [9]: 0 to 25%; pest or weed control at 100 ppm [10]: 0 to 25%; pest or weed control at 25 ppm [11]: 0 to 25%; pest or weed control at 100 ppm [12]: 0 to 25% |
| Fc1ccccc1CNc1nc(OCc2ccccc2)ncc1F [Compound 750] | 26 to 50 | 76 to 100 | 26 to 50 | 51 to 75 |  |  |  |  |  |
| CCCCCOC(=O)Nc1nc(OCc2ccccc2)ncc1F [Compound 982] |  |  |  |  | 76 to 100 | 76 to 100 | 76 to 100 | 76 to 100 |  |
| CC[Si](CC)(CC)Nc1nc(OCCc2ccc(Cl)cc2)ncc1F [Compound 507] | 51 to 75 | 76 to 100 | 0 to 25 | 76 to 100 |  |  |  |  |  |
| CCCNC(=O)Nc1nc(OCc2ccc(F)cc2)ncc1F [Compound 186] | 51 to 75 | 51 to 75 | 0 to 25 | 0 to 25 |  |  |  |  |  |
| Oc1ncc(F)c(N/N=C/c2ccco2)n1 [Compound 1112] |  |  |  |  | 0 to 25 | 0 to 25 | 0 to 25 | 26 to 50 |  |
| CC(=O)Nc1nc(OCc2ccc(F)cc2)ncc1F [Compound 52] |  |  |  |  |  |  |  |  | pest or weed control at 25 ppm [13]: 76 to 100%; pest or weed control at 100 ppm [14]: 76 to 100%; pest or weed control at 25 ppm [15]: 51 to 75%; pest or weed control at 100 ppm [16]: 51 to 75% |
| Fc1cnc(OCc2ccccc2)nc1NNc1ccc(Cl)c(Cl)c1 [Compound 1037] |  |  |  |  | 0 to 25 | 26 to 50 | 0 to 25 | 0 to 25 |  |
| Fc1cnc(OCC(F)(F)F)nc1NCc1ccc2c(c1)OCO2 [Compound 950] |  |  |  |  |  |  |  |  | pest or weed control at 50 ppm (24 h, % disease control rating, one day protectant, 50 ppm): 0 to 25%; pest or weed control at 200 ppm (24 h, % disease control rating, one day protectant, 200 ppm): 0 to 25% |

| SMILES | pest or weed control at 25 ppm [1] [%] | pest or weed control at 100 ppm [2] [%] | pest or weed control at 25 ppm [3] [%] | pest or weed control at 100 ppm [4] [%] | pest or weed control at 25 ppm [5] [%] | pest or weed control at 25 ppm [6] [%] | pest or weed control at 25 ppm [7] [%] | pest or weed control at 100 ppm [8] [%] | further results |
| --- | --- | --- | --- | --- | --- | --- | --- | --- | --- |
| CCCCCCOc1ncc(F)c(NC(C)=O)n1 [Compound 695] |  |  |  |  |  |  |  |  | pest or weed control at 25 ppm [9]: 0 to 25%; pest or weed control at 100 ppm [10]: 76 to 100%; pest or weed control at 25 ppm [11]: 0 to 25%; pest or weed control at 100 ppm [12]: 26 to 50% |
| Cc1cc(/C=N/Nc2nc(OCc3ccccc3)ncc2F)n(C)n1 [Compound 152] |  |  |  |  |  |  |  |  | pest or weed control at 25 ppm [13]: 26 to 50%; pest or weed control at 100 ppm [14]: 76 to 100%; pest or weed control at 25 ppm [15]: 26 to 50%; pest or weed control at 100 ppm [16]: 76 to 100% |
| CC(C)NC(=O)Nc1nc(O)ncc1F [Compound 971] |  |  |  |  | 26 to 50 | 26 to 50 | 51 to 75 | 76 to 100 |  |
| COc1cccc(COc2ncc(F)c(NC(C)=S)n2)c1 [Compound 770] | 76 to 100 | 76 to 100 | 76 to 100 | 76 to 100 |  |  |  |  |  |
| COc1ncc(F)c(NO[Si](C)(C)C(C)(C)C)n1 [Compound 1079] |  |  |  |  | 0 to 25 | 0 to 25 | 0 to 25 | 0 to 25 |  |
| C/C(=N\Oc1ncc(F)c(N)n1)c1ccc(S(=O)(=O)N(C)C)cc1 [Compound 1002] |  |  |  |  | 51 to 75 | 76 to 100 | 26 to 50 | 51 to 75 |  |
| CC[Si](CC)(CC)Nc1nc(OCc2ccccc2)ncc1F [Compound 656] |  |  |  |  |  |  |  |  | pest or weed control at 25 ppm [9]: 76 to 100%; pest or weed control at 100 ppm [10]: 76 to 100%; pest or weed control at 25 ppm [11]: 76 to 100%; pest or weed control at 100 ppm [12]: 76 to 100% |
| CCOCc1cccc(COc2ncc(F)c(N)n2)c1 [Compound 543] | 76 to 100 | 76 to 100 | 76 to 100 | 76 to 100 |  |  |  |  |  |
| Fc1ccc(COc2ncc(F)c(NC(=S)NCc3ccccc3F)n2)cc1 [Compound 572] |  |  |  |  |  |  |  |  | pest or weed control at 25 ppm [9]: 26 to 50%; pest or weed control at 100 ppm [10]: 76 to 100%; pest or weed control at 25 ppm [11]: 26 to 50%; pest or weed control at 100 ppm [12]: 51 to 75% |
| Nc1nc(OCCNc2ccccc2)ncc1F [Compound 583] |  |  |  |  |  |  |  |  | pest or weed control at 25 ppm [9]: 0 to 25%; pest or weed control at 100 ppm [10]: 76 to 100%; pest or weed control at 25 ppm [11]: 76 to 100%; pest or weed control at 100 ppm [12]: 76 to 100% |
| COc1cccc(COc2ncc(F)c(N3CCCCC3)n2)c1 [Compound 407] | 0 to 25 | 0 to 25 | 0 to 25 | 0 to 25 |  |  |  |  |  |
| Nc1nc(OCOC(=O)C2CCCC2)ncc1F [Compound 962, (4-amino-5-fluoropyrimidin-2-yloxy)methyl cyclopentanecarboxylate] |  |  |  |  | 76 to 100 | 76 to 100 | 76 to 100 | 76 to 100 |  |
| COc1ccccc1NC(=O)Nc1nc(O)ncc1F [Compound 954, 1-(5-Fluoro-2-hydroxypyrimidin-4-yl)-3-(2-methoxyphenyl)urea] |  |  |  |  | 26 to 50 | 26 to 50 | 26 to 50 | 51 to 75 |  |
| CCN(/C=N/c1nc(O)ncc1F)CC [Compound 1131] |  |  |  |  |  |  |  |  | pest or weed control at 25 ppm (24 h, one day protectant (1DP), 25 ppm (first 1DP column), percent disease control rating, read-out: SETTTR 1DP 25 ppm): 76 to 100%; pest or weed control at 25 ppm (24 h, one day protectant (1DP), 25 ppm as printed (second 1DP column), percent disease control rating, read-out: SETTTR 1DP 25 ppm): 76 to 100%; pest or weed control at 25 ppm [15]: 76 to 100%; pest or weed control at 100 ppm [16]: 76 to 100% |
| CCc1ccccc1COc1ncc(F)c(N)n1 [Compound 286] | 76 to 100 | 76 to 100 | 51 to 75 | 76 to 100 |  |  |  |  |  |
| CC(Oc1ncc(F)c(N)n1)c1cccc(Oc2ccccc2)n1 (stereo not shown) [Compound 82] |  |  |  |  |  |  |  |  | pest or weed control at 25 ppm [13]: 26 to 50%; pest or weed control at 100 ppm [14]: 26 to 50%; pest or weed control at 25 ppm [15]: 0 to 25%; pest or weed control at 100 ppm [16]: 26 to 50% |
